Data set [1] is described as follows: Evaluation of excretion and half-life for Testosterone following intramusculary administration of testosterone doses. It counts as ADME, organism-based. Particulars: human, in vivo, im; dosed compound id 32, dosed compound name TESTOSTERONE, gender male, tissue Plasma.
Another data set has as its system Homo sapiens. Nature of the data set: Mean steady-state pharmacokinetic parammeters for Testosterone evaluated on day 30 following multiple topical administration of Testosterone gel to adult male subjetcs with testosterone levels <= 300ng/dL. It counts as ADME, organism-based. Set-up: dose 100 mg, dose 50 mg, route topical. To be noted: in vivo, topical_or_ocular, dosed compound id 32, dosed compound name TESTOSTERONE, gender male, regimen Once daily, tissue Serum; for Cavg: route topical.

This is an account of results in ChEMBL document CHEMBL3832021, “DailyMed|setid=e42c6a90-37f6-44f5-8112-126c2c4a4b2c | TESTIM- testosterone gel | A-S Medication Solutions LLC”.

Values joined by “and” are separate entries in the source; they are usually repeats but may differ in a detail not shown here. Equal entries are not always repeated.

Regarding `C[C@]12CC[C@H]3[C@@H](CCC4=CC(=O)CC[C@@]43C)[C@@H]1CC[C@@H]2O` [TESTOSTERONE], in data set [1], the half-life was in the range of 10 to 100 min. Moreover, the Cavg in the data set on Homo sapiens (dose 50 mg) is 365 ng/dL; in the data set on Homo sapiens (dose 100 mg), 612 ng/dL. In addition, the Cmax in the data set with Homo sapiens is 538 ng/dL and 897 ng/dL.

By half-life is commonly meant the time needed for the level to fall by half in the phase considered. A low value points to rapid decline. The term Cmax denotes the peak of the concentration-time curve.
